Experimental data: ChEMBL document CHEMBL6121030, “Asymmetric Synthesis, Structure Determination, and Biologic Evaluation of Isomers of TLAM as PFK1 Inhibitors” (ACS Med Chem Lett, 2025); call rule not given here

test system: not listed separately; test: Inhibition of recombinant PFK1 (unknown origin) extracted from baculovirus-infected Sf9 cells incubated for 45 min by ADP-Glo kinase assay; set-up: species or system Homo sapiens

Compound | IC50
O=C(O)[C@H]1C2C=CC(C2)[C@H]1C(=O)N1CCc2c([nH]c3ccccc23)[C@@H]1C(F)(F)F (stereo partly specified) | 25 µM
O=C(O)[C@@H]1C2C=CC(C2)[C@@H]1C(=O)N1CCc2c([nH]c3ccccc23)[C@@H]1C(F)(F)F (stereo partly specified) | 4.7 µM
O=C(O)[C@@H]1C2C=CC(C2)[C@@H]1C(=O)N1CCc2c([nH]c3ccccc23)[C@H]1C(F)(F)F (stereo partly specified) | > 100 µM

Now those with a lower IC50, led by results:

IC50 | Compound
2.7 µM | O=C(O)C1C2C=CC(C2)C1C(=O)N1CCc2c([nH]c3ccccc23)C1C(F)(F)F (stereo unspecified)
2.1 µM | O=C(O)[C@H]1C2C=CC(C2)[C@H]1C(=O)N1CCc2c([nH]c3ccccc23)[C@H]1C(F)(F)F (stereo partly specified)

test system: HeLa; test: Effect on mitochondrial respiration in human HeLa cells assessed as increase in OCR/ECAR ratio incubated for 24 hrs by XFe96 extracellular flux analyzer assay; type: functional, cell-based

Compound | Activity
O=C(O)[C@H]1C2C=CC(C2)[C@H]1C(=O)N1CCc2c([nH]c3ccccc23)[C@H]1C(F)(F)F (stereo partly specified) | Active; Significantly Increased
